Results on 15 molecules are retold here after patent US4638070A, “Heterocyclic amino-alcohol derivatives” (Continental Pharma, priority 1980, dated 1987).

The subject of data set [1] is unanaesthetized, hypertension-suffering rat. Kind of data set: Antihypertensive activity (systolic arterial pressure), oral. The data set is classed as in vivo. Particulars: 60 mg/kg, hypertensive rat, 3 hours. Here is the method:
(2) The antihypertensive activity was measured on unanaesthetized, hypertension-suffering rat. The tested substances were orally given at a rate of 60 mg/kg. The systolic arterial pressure was measured every 30 minutes for 2 hours before and for 3 hours after the tested product was given. Results are expressed as follows: […]
O: no reduction of arterial pressure.
+: reduction lower than 10 mm Hg.
++: reduction of 10 to 20 mm Hg.
+++: reduction higher than 20 mm Hg.

The nature of data set [2]: Acute toxicity, oral, LD50 (Litchfield and Wilcoxon). Conditions: mouse, in vivo, fasted male mice, confidence limits p=95% in brackets. The method, then:
(1) The acute toxicity was determined on fasted male mice. The tested substances were orally administered and LD50 values (lethal dose for 50% of animals) were calculated according to the method of Litchfield and Wilcoxon (J. Pharmacol. exp. Ther. 96, 94-113, 1949). These LD50 values are given in mg/kg and also, when possible, with their confidence limits for p=95%.

Data set [3] concerns guinea-pig ileum (histamine contractions). In words: Antispasmodic activity in vitro, contractions caused by histamine. Conditions: added 15 minutes before spasm-producing agent. Here is the method:
(§1) (4) The antispasmodic activity was measured in vitro, on guinea-pig ileum, the contractions of which were caused by histammne (Hist.), acetylcholine (Achol) or barium chloride (BaCl2). The tested products were added to perfusion bath 15 minutes before the spasm-producing agents.
(§2) The dose is given in micograms (μg) per ml of bath causing complete spasm inhibition.

The subject of the next data set is femoral artery. In words: Vasodilator activity, femoral artery (technique of perfused paw). Type of data set: in vivo. Particulars: intra-arterial, 30 mg/kg, anaesthetized dog, vs papaverine at same dose. The arrangement: key: O: no action; +: slight activity; ++: effect equal to half the effect of papaverine; +++: effect equal to that of papaverine; ++++: effect higher than that of papaverine. The method, then:
(3) The vasodilator activity was measured at the level of femoral artery on anaesthetized dog (technique of perfused paw). The tested substances were given intra-arterially at the rate of 30 mg/kg. Results are expressed with respect to papaverine tested at the same dose.
++: effect equal to half the effect of papaverine.
+++: effect equal to that of papaverine.
++++: effect higher than that of papaverine.

Data set [4] concerns guinea-pig ileum (acetylcholine contractions). In words: Antispasmodic activity in vitro, contractions caused by acetylcholine. Conditions: added 15 minutes before spasm-producing agent. Here is the method:
as §1, §2

Some results are limits rather than exact numbers.

In the case of `CCCCCCCC(=O)OC(c1ccc2c(c1)CCS2)C(C)NCCCCc1ccccc1` (stereo not drawn) [No 133], the “ANTIHYPERTENSIVE ACTIVITY” value in data set [1] is on record as “+++ (reduction higher than 20 mm Hg)”. The same molecule displayed an LD50 in data set [2] of 2600 mg/kg.
The corresponding values for `CC(NCCCCc1ccccc1)C(OC(=O)C1CCCCC1)c1ccc2c(c1)CCS2` (stereo not drawn) [No 138] are “+++ (reduction higher than 20 mm Hg)” and > 4000 mg/kg.
With `CC(NCCCCc1ccccc1)C(O)c1ccc2c(c1)SCCO2` (stereo not drawn) [No 122], the “ANTISPASMODIC ACTIVITY HIST. (dose causing complete spasm inhibition)” value in data set [3] was 0.3 μg per ml. The “VASODILATOR ACTIVITY” value in the data set on femoral artery is on record as “++++”. In addition, the “ANTIHYPERTENSIVE ACTIVITY” value in data set [1] is listed as “+++ (reduction higher than 20 mm Hg)”. The molecule also gave a median lethal dose (LD50) in data set [2] of 1650 mg/kg.
Take `CCC(NCCCCc1ccccc1)C(O)c1ccc2c(c1)CCCS2` (stereo not drawn) [No 135]: the “ANTIHYPERTENSIVE ACTIVITY” value in data set [1] is given as “+++ (reduction higher than 20 mm Hg)”. In data set [2], the LD50 was > 4000 mg/kg.
`CC(NCCOc1ccccc1)C(O)c1ccc2c(c1)SCCS2` (stereo not drawn) [No 104]: the “ANTISPASMODIC ACTIVITY ACHOL (dose causing complete spasm inhibition)” value in data set [4] amounted to 16.7 μg per ml. Further, the “ANTISPASMODIC ACTIVITY HIST. (dose causing complete spasm inhibition)” value in data set [3] worked out at 8.3 μg per ml. In addition, the “ANTIHYPERTENSIVE ACTIVITY” value in data set [1] was “+ ++”. Moreover, the LD50 in data set [2] was > 4000 mg/kg.
Regarding `COCCOCCCNC(C)C(O)c1ccc2c(c1)CCC2` (stereo not drawn) [No 179], the “ANTIHYPERTENSIVE ACTIVITY” value in data set [1] was “+++ (reduction higher than 20 mm Hg)”. In data set [2], this molecule gave an LD50 of 250 mg/kg.
Consider `CCCC(=O)OC(c1ccc2c(c1)CCS2)C(C)NCCCCc1ccccc1` (stereo not drawn) [No 130], for which the “ANTIHYPERTENSIVE ACTIVITY” value in data set [1] was “+++ (reduction higher than 20 mm Hg)”. In data set [2], this molecule registered an LD50 of 3700 mg/kg.
With `CC1CCc2cc(C(O)C(C)NCCCCc3ccccc3)ccc2S1` (stereo not drawn) [No 5, 1-(2-methyl-6-thiochromanyl)-2-(4-phenylbutylamino)-1-propanol], the “ANTISPASMODIC ACTIVITY ACHOL (dose causing complete spasm inhibition)” value in data set [4] was 3.3 μg per ml. Moreover, the “VASODILATOR ACTIVITY” value in the data set on femoral artery was “++++”. In addition, in data set [1], the “ANTIHYPERTENSIVE ACTIVITY” value was “++ (reduction of 10 to 20 mm Hg)”. In data set [2], the LD50 came to 3600 mg/kg.
The corresponding values for `CC(NCCc1ccccc1)C(O)c1ccc2c(c1)CCS2` (stereo not drawn) [No 6] are 3.3 μg per ml, “+++”, “+ (reduction lower than 10 mm Hg)” and < 500 mg/kg.
With `CCCCSCCCNC(C)C(O)c1ccc2c(c1)CCC2` (stereo not drawn) [No 178], in data set [3], the “ANTISPASMODIC ACTIVITY HIST. (dose causing complete spasm inhibition)” value is listed as 1.7 μg per ml. The “VASODILATOR ACTIVITY” value in the data set with femoral artery is “++++”. Besides, the “ANTIHYPERTENSIVE ACTIVITY” value in data set [1] is reported as “++ (reduction of 10 to 20 mm Hg)”. The LD50 in data set [2] is 870 mg/kg.
Regarding `Cc1ccc(CCCCNC(C)C(O)c2ccc3c(c2)CCS3)cc1` (stereo not drawn) [No 32], the “ANTISPASMODIC ACTIVITY ACHOL (dose causing complete spasm inhibition)” value in data set [4] stood at 1.7 μg per ml. For the same molecule, in data set [3], the “ANTISPASMODIC ACTIVITY HIST. (dose causing complete spasm inhibition)” value turned out to be 0.8 μg per ml. For the same molecule, the “ANTIHYPERTENSIVE ACTIVITY” value in data set [1] was “+++ (reduction higher than 20 mm Hg)”. The LD50 in data set [2] was 4000 mg/kg.
For `CC(C(O)c1ccc2c(c1)CCCS2)N1CCOC(c2ccccc2)C1C` (stereo not drawn) [No 110], the “ANTISPASMODIC ACTIVITY ACHOL (dose causing complete spasm inhibition)” value in data set [4] came out at 3.3 μg per ml. Further, in data set [3], the “ANTISPASMODIC ACTIVITY HIST. (dose causing complete spasm inhibition)” value was 0.8 μg per ml. Besides, the “VASODILATOR ACTIVITY” value in the data set on femoral artery is 0. In data set [1], the “ANTIHYPERTENSIVE ACTIVITY” value is on record as “+ (reduction lower than 10 mm Hg)”.
The corresponding values for `CC1Cc2cc(C(O)C(C)NCCCc3ccccc3)ccc2S1` (stereo not drawn) [No 67] are 1.7 μg per ml, 1.7 μg per ml, “+++” and “+++ (reduction higher than 20 mm Hg)”.
As for `CC(NCCCCc1ccccc1)C(OC(=O)C1CCC1)c1ccc2c(c1)CCS2` (stereo not drawn) [No 132], the “ANTIHYPERTENSIVE ACTIVITY” value in data set [1] was “+++ (reduction higher than 20 mm Hg)”. This molecule displayed an LD50 in data set [2] of 1900 mg/kg.
In the case of `CC(CCCc1ccccc1)NC(C)C(O)c1ccc2c(c1)CCCS2` (stereo not drawn) [No 42], in data set [4], the “ANTISPASMODIC ACTIVITY ACHOL (dose causing complete spasm inhibition)” value amounted to 1.7 μg per ml. Moreover, the “ANTISPASMODIC ACTIVITY HIST. (dose causing complete spasm inhibition)” value in data set [3] is 1.7 μg per ml. Besides, the “VASODILATOR ACTIVITY” value in the data set with femoral artery is “+++”. Further, in data set [1], the “ANTIHYPERTENSIVE ACTIVITY” value is listed as “+++ (reduction higher than 20 mm Hg)”.
